Reference: patent US8449898B2 (priority 2007, dated 2013)
Where two headings read alike, the source gives them in different places.

Legend:
[1] = tested on: Phytophthora infestans (the causal agent of tomato late blight); test: whole plant or invertebrate; type: in vivo; conditions: for TLB Obsd (observed effect, tomato late blight): component (b) alone; for TLB Obsd: Table D
[2] = tested on: Pseudoperonospora cubensis (the causal agent of cucumber downy mildew); test: Test B: cucumber downy mildew, preventive spray on cucumber seedlings; type: in vivo

Compound: Cc1cc(C(F)(F)F)nn1CC(=O)N1CCC(c2nc(C3=NOC4c5ccccc5CCC34)cs2)CC1 (centres unmarked)
- melting point: 162 to 165 °C

Compound: Cc1cc(C(F)(F)F)nn1CC(=O)N1CCC(c2nc(C3=NOC(C)(c4ccccc4)C3)cs2)CC1 (centres unmarked)
- melting point: 97 to 100 °C

Compound: COc1ccc(C2CC(c3csc(C4CCN(C(=O)Cn5nc(C(F)(F)F)cc5C)CC4)n3)=NO2)cc1 (centres unmarked)
- melting point: 119 to 124 °C

Compound: O=C(Cn1nc(C(F)(F)F)cc1C(F)(F)F)N1CCC(c2nc(C3=NOC(c4ccccc4)C3)cs2)CC1 (centres unmarked)
- melting point: 130 to 133 °C

Compound: CCc1cc(C(F)(F)F)nn1CC(=O)N1CCC(c2nc(C3=NOC(c4ccccc4)C3)cs2)CC1 (centres unmarked)
- melting point: 128 to 133 °C

Compound: CC(C)[C@H](NC(=O)O)C(=O)N[C@H](C)c1nc2ccc(F)cc2s1 [benthiavalicarb]
- TLB Obsd (observed effect, tomato late blight) ([1]; 0.08 ppm): 21
- TLB Obsd (observed effect, tomato late blight) ([1]; 0.4 ppm): 82
- TLB Obsd (observed effect, tomato late blight) ([1]; 2 ppm): 100
- TLB Obsd (observed effect, tomato late blight) ([1]; 10 ppm): 100
- TLB Obsd (observed effect, tomato late blight) ([1]; 40 ppm): 100
- CDM Obsd (observed effect, cucumber downy mildew) ([2]; component (b) alone, 0.08 ppm): 0
- CDM Obsd (observed effect, cucumber downy mildew) ([2]; component (b) alone, 0.4 ppm): 75
- CDM Obsd (observed effect, cucumber downy mildew) ([2]; component (b) alone, 2 ppm): 100
- CDM Obsd (observed effect, cucumber downy mildew) ([2]; component (b) alone, 10 ppm): 100
- CDM Obsd (observed effect, cucumber downy mildew) ([2]; component (b) alone, 40 ppm): 100

Compound: CCO[PH](=O)O [fosetyl-aluminum]
- TLB Obsd ([1]; component (b) alone at 10 ppm): 0%
- TLB Obsd ([1]; component (b) alone at 40 ppm): 20%
- TLB Obsd ([1]; component (b) alone at 200 ppm): 65%
- TLB Obsd ([1]; component (b) alone at 1000 ppm): 97%
- TLB Obsd ([1]; component (b) alone at 2000 ppm): 100%
- TLB Obsd (observed effect, tomato late blight) ([1]; 10 ppm): 0
- TLB Obsd (observed effect, tomato late blight) ([1]; 40 ppm): 0
- TLB Obsd (observed effect, tomato late blight) ([1]; 200 ppm): 50
- TLB Obsd (observed effect, tomato late blight) ([1]; 1000 ppm): 99
- TLB Obsd (observed effect, tomato late blight) ([1]; 2000 ppm): 100
- CDM Obsd ([2]; Table D, component (b) alone at 10 ppm): 47%
- CDM Obsd ([2]; Table D, component (b) alone at 40 ppm): 47%
- CDM Obsd ([2]; Table D, component (b) alone at 200 ppm): 47%
- CDM Obsd ([2]; Table D, component (b) alone at 1000 ppm): 98%
- CDM Obsd ([2]; Table D, component (b) alone at 2000 ppm): 100%
- CDM Obsd ([2]; component (b) alone 10 ppm (Compound 1 0 ppm)): 47%
- CDM Obsd ([2]; component (b) alone 40 ppm (Compound 1 0 ppm)): 47%
- CDM Obsd ([2]; component (b) alone 200 ppm (Compound 1 0 ppm)): 63%
- CDM Obsd ([2]; component (b) alone 1000 ppm (Compound 1 0 ppm)): 98%
- CDM Obsd ([2]; component (b) alone 2000 ppm (Compound 1 0 ppm)): 100%
- CDM Obsd (observed effect, cucumber downy mildew) ([2]; component (b) alone, 10 ppm): 0
- CDM Obsd (observed effect, cucumber downy mildew) ([2]; component (b) alone, 40 ppm): 0
- CDM Obsd (observed effect, cucumber downy mildew) ([2]; component (b) alone, 200 ppm): 0
- CDM Obsd (observed effect, cucumber downy mildew) ([2]; component (b) alone, 1000 ppm): 68
- CDM Obsd (observed effect, cucumber downy mildew) ([2]; component (b) alone, 2000 ppm): 73

Compound: O=C(Nc1ccccc1-c1ccc(Cl)cc1)c1cccnc1Cl [boscalid]
- pest or weed control at 0.4 ppm ([1]; Phytophthora infestans, read-out: TLB Obsd (disease control rating), Table A, component (b) alone 0.4 ppm): 9%
- pest or weed control at 2 ppm ([1]; Phytophthora infestans, read-out: TLB Obsd (disease control rating), Table A, component (b) alone 2 ppm): 17%
- pest or weed control at 10 ppm ([1]; Phytophthora infestans, read-out: TLB Obsd (disease control rating), Table A, component (b) alone 10 ppm): 17%
- pest or weed control at 40 ppm ([1]; Phytophthora infestans, read-out: TLB Obsd (disease control rating), Table A, component (b) alone 40 ppm): 17%
- pest or weed control at 200 ppm ([1]; Phytophthora infestans, read-out: TLB Obsd (disease control rating), Table A, component (b) alone 200 ppm): 9%
- pest or weed control at 0.04 ppm ([1]; Phytophthora infestans, read-out: TLB Obsd, component (b) alone, 0.04 ppm): 25%
- pest or weed control at 2 ppm ([1]; Phytophthora infestans, read-out: TLB Obsd, component (b) alone, 2 ppm): 0%
- pest or weed control at 10 ppm ([1]; Phytophthora infestans, read-out: TLB Obsd, component (b) alone, 10 ppm): 0%
- pest or weed control at 40 ppm ([1]; Phytophthora infestans, read-out: TLB Obsd, component (b) alone, 40 ppm): 17%
- pest or weed control at 200 ppm ([1]; Phytophthora infestans, read-out: TLB Obsd, component (b) alone, 200 ppm): 32%
- pest or weed control at 0.4 ppm ([2]; Pseudoperonospora cubensis, Table A, component (b) alone 0.4 ppm, read-out: CDM Obsd (disease control rating)): 47%
- pest or weed control at 2 ppm ([2]; Pseudoperonospora cubensis, Table A, component (b) alone 2 ppm, read-out: CDM Obsd (disease control rating)): 47%
- pest or weed control at 10 ppm ([2]; Pseudoperonospora cubensis, Table A, component (b) alone 10 ppm, read-out: CDM Obsd (disease control rating)): 47%
- pest or weed control at 40 ppm ([2]; Pseudoperonospora cubensis, Table A, component (b) alone 40 ppm, read-out: CDM Obsd (disease control rating)): 47%
- pest or weed control at 200 ppm ([2]; Pseudoperonospora cubensis, Table A, component (b) alone 200 ppm, read-out: CDM Obsd (disease control rating)): 47%
- pest or weed control at 0.4 ppm ([2]; Pseudoperonospora cubensis, Table G, component (b) alone at 0.4 ppm, read-out: CDM Obsd): 47%
- pest or weed control at 2 ppm ([2]; Pseudoperonospora cubensis, Table G, component (b) alone at 2 ppm, read-out: CDM Obsd): 47%
- pest or weed control at 10 ppm ([2]; Pseudoperonospora cubensis, Table G, component (b) alone at 10 ppm, read-out: CDM Obsd): 26%
- pest or weed control at 40 ppm ([2]; Pseudoperonospora cubensis, Table G, component (b) alone at 40 ppm, read-out: CDM Obsd): 26%
- pest or weed control at 200 ppm ([2]; Pseudoperonospora cubensis, Table G, component (b) alone at 200 ppm, read-out: CDM Obsd): 26%
- pest or weed control at 0.04 ppm ([2]; Pseudoperonospora cubensis, component (b) alone, 0.04 ppm, read-out: CDM Obsd): 68%
- pest or weed control at 2 ppm ([2]; Pseudoperonospora cubensis, component (b) alone, 2 ppm, read-out: CDM Obsd): 0%
- pest or weed control at 10 ppm ([2]; Pseudoperonospora cubensis, component (b) alone, 10 ppm, read-out: CDM Obsd): 0%
- pest or weed control at 40 ppm ([2]; Pseudoperonospora cubensis, component (b) alone, 40 ppm, read-out: CDM Obsd): 0%
- pest or weed control at 200 ppm ([2]; Pseudoperonospora cubensis, component (b) alone, 200 ppm, read-out: CDM Obsd): 0%
